Several values for one entry are separate records, joined by “and”; a condition that tells them apart may be missing. Equal entries are not always repeated. Entries after “also recorded” stand apart in the source; their conditions may differ.
How the values were obtained:
human PBMCs = test: IL-6 secretion in human PBMCs, two batches of Compound A and SC12; format: cell-based; conditions: 5 months storage in DMSO at 4° C.
Description: PBMCs were purified from two donors and plated into 96 well plates at 2×10^5 cells/well in RPMI media including human 2% heat inactivated AB serum, glutamine, Pen-strep and R-mercapto-ethanol. […] The conditioned media was removed for ELISA analyses for IL-6, and the EC50 value determined for each compound and each batch.
All compounds were tested in four concentrations (10-1-0, 1-0.01 micromolar).
Concentrations of IL-6 were determined by ELISA from R&D Systems using the Microsoft Excel software. The results were analyzed in Graph Pad Prism in order to prepare dose-response curves, and for determination of EC50 values.

[1] = Plasma stability in human plasma (second experiment); conditions: up to 120 min
Description: Second experiment: Test compounds (5 mM in DMSO) were diluted at the final concentration of 250 μM with ACN-MeOH 1:1.
Human plasma (1.180 ml) was spiked with 20 μl of 250 μM solution of the compound (4.16 μM final concentration) and aliquots of 50 μl volume were taken at 0, 15, 30, 60, 120 min and 5 hrs, and immediately quenched with 200 μl of a solution of Verapamil 250 ng/ml (internal standard, I.S.) in ACN:MeOH 95:5. Samples were then centrifuged for 20 min at 3000 rpm at 10° C. and analyzed as reported below. […] The supernatant fractions were analyzed by LC/MS/MS. Zero-time incubations were used as 100% values.
Stability was calculated as percentage remaining of the area ratio compound/I.S. at each time point vs. area ratio compound/I.S. at time 0 min.

[2] = test system: HLA-DR+/CD11c+/CD123- mDCs; test: FACS analysis of myeloid DC activation in whole blood; format: cell-based, human; conditions: 24 hours; 0.1 and 0.5 uM; three donors
Description: The FACS analysis for donor 1 and donor 2 was made on another day than donor 3. The compound concentrations were as follows:
The FACS analysis was used to identify whether the test compounds could induce activation of B cells, and two different subsets of dendritic cells, namely the myeloid CD11c+/CD123− DCs and the plasmacytoid CD11c−/CD123+ DCs. The following markers were studied to identify the activation status of the different subsets:
The FACS staining was performed according to the manufacturer's instructions. Lysis of red blood cells was performed before FACS staining in order to minimize auto-florescence. To include as many B cells and DCs in the study as possible the FACS analyses were performed on 500,000 cells in total for each staining. A P1 gate was set only to include relevant cells on FSC vs. SSC (see FIGS. 12-15). The results of the individual analysis were present as Mean Fluorescence Intensity
The analysis of myeloid DCs was based on HLA-DR+/CD11c+/CD123−cells, thus all analyzed cells was included in the HLA-DR+ (P3) gate and CD11c+/CD123− (Q4) gate (see gates in FIGS. 13-15).

[3] = test system: Escherichia coli WP2 uvrA; test: Bacterial mutation assay, Escherichia coli; format: cell-based; conditions: absence or presence of S9 metabolism
Description: The five tester strains TA1535, TA1537, TA98, TA100 and WP2 uvrA were used. Experiments were performed both in the absence and presence of metabolic activation, using liver S9 fraction from rats pre-treated with phenobarbitone and betanaphthoflavone. SC12 was used as a solution in dimethylsulfoxide (DMSO).

[4] = Single dose intravenous toxicity study in rats; format: in vivo, Sprague Dawley rat
Description: An additional group, similarly composed, received the vehicle alone and acted as a control. […] Clinical signs were limited to piloerection and reduced activity, observed on the day of dosing.
In the main phase, 5 male and 5 female animals were dosed at 90 mg/kg and observed for a period of 14 days. A second group, similarly constituted, received the vehicle alone and acted as control. […] In addition, one male and one female dosed at 90 mg/kg were found dead on Day 2 of the study. Twitches, ataxia, piloerection, reduced activity and hunched posture were the major signs observed in animals before death. […] Piloerection was observed up to Day 3 of the study. A second group, similarly composed, was dosed at 80 mg/kg.

[5] = test system: 73 primary molecular targets (human recombinant receptor types and subtypes or membrane fraction from rodent tissue homogenates); test: Radioligand binding assay among 73 primary molecular targets; conditions: SC12 at 30 microM
CYP2C9 = CYP2C9 (Homo sapiens (Human), UniProt P11712); test: Fluorescent High Throughput P450 assay CYP2C9; format: in vitro ADME
Description: (§1) Inhibition of the P450 isoforms was measured in specific assays using specific substrates that become fluorescent upon CYP metabolism. Compounds, dissolved in ACN (acetonitrile) (CYP2E1, CYP2C8, CYP2B6, CYP3A5) or DMSO (all remaining isoforms), were tested in duplicate (n=2) in concentration-response curves (eight concentrations) in a 96-well plate containing incubation/NADPH regenerating buffer. Specific isoenzymes and substrates were added and incubated at 37° C. Reactions were terminated at different times, depending on the assays, and plates read on a Fluoroskan Ascent at the appropriate emission/excitation wavelengths. Concentration-response curves performed in duplicate for known inhibitors for each isoenzyme were tested in every assay as positive control.

CYP3A5 = CYP3A5 (Homo sapiens (Human), UniProt P20815); test: Fluorescent High Throughput P450 assay CYP3A5; format: in vitro ADME
Description: as §1

CYP2E1 = CYP2E1 (Homo sapiens (Human), UniProt P05181); test: Fluorescent High Throughput P450 assay CYP2E1; format: in vitro ADME
Description: as §1

[6] = test system: recombinant protein antigens from Plasmodium falciparum and Mycobacterium ulcerans; test: Pilot immunization study with adjuvanted protein antigens in mice; format: in vivo
Description: A pilot immunization study was conducted using Compound A and SC12 adjuvanted protein antigens. The immunization experiments were performed with two recombinant proteins expressed in E. coli. One antigen was derived from the malaria parasite Plasmodium falciparum and the other one from Mycobacterium ulcerans, which cause the ulcerative skin disease Buruli ulcer.

[7] = Serum exposure after intravesical chronic treatment in mouse; conditions: intravesical, LLOQ 0.5 ng/ml
Description: Serum samples were taken at time points: day 0, 2 hours, day 1, 24 hours, and day 6, 2 hours.
Samples were evaporated and re-suspended in 70 microliters of acetonitrile/methanol 1:1.

[8] = Solubility in organic solvents; format: physicochemical; conditions: especially in ACN
[9] = test system: AY-27 rat bladder cancer cell-line; conditions: day 12

Chain of CYP2C9 (P11712 whole entry, looked up): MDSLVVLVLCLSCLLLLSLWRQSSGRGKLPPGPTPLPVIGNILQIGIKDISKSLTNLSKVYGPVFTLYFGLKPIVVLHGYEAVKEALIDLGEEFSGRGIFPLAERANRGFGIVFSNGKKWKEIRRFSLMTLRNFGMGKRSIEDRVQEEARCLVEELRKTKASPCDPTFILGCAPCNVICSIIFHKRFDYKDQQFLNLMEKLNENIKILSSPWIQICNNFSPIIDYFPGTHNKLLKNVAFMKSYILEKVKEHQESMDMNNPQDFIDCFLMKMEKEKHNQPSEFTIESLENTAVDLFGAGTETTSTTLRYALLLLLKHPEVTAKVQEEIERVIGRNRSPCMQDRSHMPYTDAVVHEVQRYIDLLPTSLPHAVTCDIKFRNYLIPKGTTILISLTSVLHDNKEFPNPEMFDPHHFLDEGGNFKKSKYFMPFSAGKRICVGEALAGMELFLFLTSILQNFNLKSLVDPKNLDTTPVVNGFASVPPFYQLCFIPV
Chain of CYP3A5 (P20815 whole entry, looked up): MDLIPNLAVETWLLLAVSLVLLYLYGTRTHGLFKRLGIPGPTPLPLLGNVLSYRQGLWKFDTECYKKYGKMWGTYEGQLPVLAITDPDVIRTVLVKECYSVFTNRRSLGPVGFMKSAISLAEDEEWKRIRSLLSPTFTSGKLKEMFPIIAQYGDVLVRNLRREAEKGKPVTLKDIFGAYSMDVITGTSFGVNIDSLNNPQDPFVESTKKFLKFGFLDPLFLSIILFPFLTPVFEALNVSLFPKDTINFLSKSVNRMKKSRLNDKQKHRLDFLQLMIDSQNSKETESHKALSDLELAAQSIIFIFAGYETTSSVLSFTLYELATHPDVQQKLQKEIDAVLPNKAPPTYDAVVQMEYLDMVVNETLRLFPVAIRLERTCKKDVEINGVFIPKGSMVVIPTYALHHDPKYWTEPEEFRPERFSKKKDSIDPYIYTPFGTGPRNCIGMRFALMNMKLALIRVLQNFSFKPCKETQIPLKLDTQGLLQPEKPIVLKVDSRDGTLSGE
Chain of CYP2E1 (P05181 whole entry, looked up): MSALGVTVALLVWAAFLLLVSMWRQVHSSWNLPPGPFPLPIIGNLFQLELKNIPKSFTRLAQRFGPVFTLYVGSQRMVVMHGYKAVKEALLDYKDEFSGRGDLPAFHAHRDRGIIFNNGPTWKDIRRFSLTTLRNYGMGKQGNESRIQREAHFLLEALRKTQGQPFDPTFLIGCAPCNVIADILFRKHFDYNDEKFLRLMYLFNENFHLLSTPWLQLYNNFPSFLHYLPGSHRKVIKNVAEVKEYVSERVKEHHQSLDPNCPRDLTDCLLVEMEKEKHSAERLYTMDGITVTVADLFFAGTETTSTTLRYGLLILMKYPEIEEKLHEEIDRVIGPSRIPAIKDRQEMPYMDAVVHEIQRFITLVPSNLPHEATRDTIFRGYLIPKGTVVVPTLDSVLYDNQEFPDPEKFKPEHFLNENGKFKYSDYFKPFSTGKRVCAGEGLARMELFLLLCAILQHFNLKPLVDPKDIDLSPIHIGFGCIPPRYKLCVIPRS

## CCCCCCCCCCCC(=O)OCC(COP(=O)(O)OCCNC(=O)c1ccc(Cn2c(=O)[nH]c3c(N)nc(OCCOC)nc32)cc1)OC(=O)CCCCCCCCCCC (stereo not shown) [SC12]
Human PBMCs
  activity after storage (in words): have not lost activity
[1]
  stability classification: stable
[2]
  CCR7 expression in mDCs (MFI, in words): less potent stimulator of CCR7 expression
  CD80 expression in mDCs (MFI, in words): induced a noteworthy CD80 expression in all three donors
  CD86 expression in mDCs (MFI, in words): induces a weak CD86 expression in donor 2 and 3, but not in donor 1
[3]; toxicity test, 50.0-5000 micrograms/plate
  toxicity to tester strains: No toxicity was observed
[3]; up to 5000 micrograms/plate
  reverse mutation / revertant colonies: did not induce two-fold increases in the number of revertant colonies; also recorded: does not induce reverse mutation
[4]; 76 mg/kg i.v., preliminary phase
  mortality: No mortality occurred
[4]; 80 mg/kg i.v., main phase
  mortality and clinical signs: No mortality occurred and no clinical signs were recorded
[4]; 85 mg/kg i.v., preliminary phase
  clinical signs: Piloerection
[4]; 90 mg/kg i.v., main phase
  mortality and signs of toxicity: induced mortality or significant signs of toxicity
[4]; 90 mg/kg i.v., preliminary phase
  mortality: No mortality occurred
[4]; 100 mg/kg i.v., preliminary phase
  mortality: Both animals died at dosing
[4]; single intravenous administration, rat
  maximum tolerated dose: 80 mg/kg
[5]
  binding to receptors associated with pain-related syndromes (e.g. adenosine and sodium channel): did not bind
CYP2C9
  inhibition of CYP2C9 (in words): weak inhibition
CYP3A5
  inhibition of CYP3A5 (in words): moderate inhibition
CYP2E1
  inhibition of CYP2E1 (in words): moderate inhibition
[6]; three s.c. immunizations with 10 nMol adjuvant
  local side effects: No local side effects
[6]; three s.c. immunizations, 20 micrograms antigen mixed with 10 nMol adjuvant, after the third immunization
  IgG responses against the target antigens: developed IgG responses
[7]; Day 0, 2 hours
  SC12 levels in serum, Mean ± S.D.: 0.5 ± 0.5 ng/mL
  SC12 levels in serum, individual mice: <LLOQ (2×) and 1.0 ng/ml and 0.5 ng/ml
[7]; Day 1, 24 hours
  SC12 levels in serum, Mean ± S.D.: <LLOQ
  SC12 levels in serum, individual mice: <LLOQ
[7]; Day 6, 2 hours
  SC12 levels in serum, Mean ± S.D.: <LLOQ
  SC12 levels in serum, individual mice: <LLOQ
[8]
  solubility: low solubility
[9]; 0.5 ml intravesical instillation (Imiquimod 0.1%, SC12 0.38%) on day 2 and 5
  Range of weight of the rat bladders: 0.0780-0.1422 grams
[9]; of 14 rats per group
  Tumor free (% of rats): 42.9%
  Tumor free (number of rats): 6
  pT2 Tumor (% of rats): 50.0%
  pT2 Tumor (number of rats): 7
  pTa Tumor (% of rats): 7.1%
  pTa Tumor (number of rats): 1

From patent US9180183B2, “Phospholipid drug analogs” (Telormedix SA, priority 2010, dated 2015)
